Data reported in US7049337B2 (Wayne State University, priority 2000, dated 2006).
Where two headings read alike, the source gives them in different places.

Assays:
human D3 receptor = target: T1, human D3 receptor (Homo sapiens, UniProt P35462); test: [3H]spiperone binding to cloned human D3 receptors in HEK 293 cell membranes; conditions: for D2L/D3L: ratio of Ki D2L to Ki D3; for Differential activity (D2L/D3) compared with control, in words: versus (+)-7-OH-DPAT control; for D3 receptor activity compared with control, in words: displacing [3H]spiperone from D3 receptors in HEK cells, racemic compounds versus (+)-7-OH-DPAT
T1 construct: expressed in transfected cells; host or cells: HEK 293 cells, stably transfected (Watts and colleagues, Oregon Health Sciences University); membranes prepared from the cells
Description: (§1) The target compounds synthesized were assayed for differential CNS activity by binding studies employing cloned human receptors expressed in HEK cells. […] The compounds were evaluated for their binding at the D2 and D3 receptors.
(§2) Binding affinities of these novel compounds were assessed according to previously published procedures. V. J. Watts et al., EUR. J. PHARMACOL., 1993, 239,271; V. J. Watts et al., EUR. J. PHARMACOL., 1996, 50, 966. Human embryonic kidney (HEK) 293 cells were stably transfected with cDNA for the human D2L and D3 receptors by Watts and colleagues at Oregon Health Sciences University in accordance with published procedures; V. J. Watts, MOL. PHARMACOL, op. cit., and graciously shipped to the University of Illinois for receptor binding assays. Membranes were prepared from the cells as described previously, V. J. Watts et al., EUR. J. PHARMACOL., 1993, op. cit. […] (+)-Butaclamol (2 ,μM) was used to define nonspecific binding. Assays were terminated with a 24-pin Brandel harvester as described previously, M. E. A. Reith et al., BIOL. CHEM. 1986, 261, 7300. IC50 values were estimated by nonlinear regression analysis with the ALLFIT equation, and converted to inhibition constants (Ki) by the Cheng-Prusoff equation as in previous work, Reith et al., J. BIOL. CHEM., op. cit.

human D2L receptor = target: T2, human D2L receptor (Homo sapiens, UniProt P14416); test: [3H]spiperone binding to cloned human D2L receptors in HEK 293 cell membranes
T2 construct: expressed in transfected cells; host or cells: HEK 293 cells, stably transfected (Watts and colleagues, Oregon Health Sciences University); membranes prepared from the cells
Description: as §1, §2

[1] = cloned human D2L in HEK cells, 0.4 nM [3H]spiperone, 1 h, 30° C., no GTP, mean ± spread (n)

T2 sequence (P14416 whole entry): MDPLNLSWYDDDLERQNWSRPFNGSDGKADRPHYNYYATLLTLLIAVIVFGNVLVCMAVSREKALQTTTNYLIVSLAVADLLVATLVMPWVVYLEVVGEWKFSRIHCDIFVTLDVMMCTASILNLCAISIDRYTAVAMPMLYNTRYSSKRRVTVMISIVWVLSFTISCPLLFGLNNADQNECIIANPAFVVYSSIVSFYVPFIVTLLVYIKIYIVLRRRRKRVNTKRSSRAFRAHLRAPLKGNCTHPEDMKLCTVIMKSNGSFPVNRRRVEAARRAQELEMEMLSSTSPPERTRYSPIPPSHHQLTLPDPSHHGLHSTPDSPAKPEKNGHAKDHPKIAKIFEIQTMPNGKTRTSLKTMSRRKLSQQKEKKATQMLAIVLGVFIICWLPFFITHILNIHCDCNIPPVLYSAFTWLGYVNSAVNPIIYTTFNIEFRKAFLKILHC
T1 sequence (P35462 whole entry): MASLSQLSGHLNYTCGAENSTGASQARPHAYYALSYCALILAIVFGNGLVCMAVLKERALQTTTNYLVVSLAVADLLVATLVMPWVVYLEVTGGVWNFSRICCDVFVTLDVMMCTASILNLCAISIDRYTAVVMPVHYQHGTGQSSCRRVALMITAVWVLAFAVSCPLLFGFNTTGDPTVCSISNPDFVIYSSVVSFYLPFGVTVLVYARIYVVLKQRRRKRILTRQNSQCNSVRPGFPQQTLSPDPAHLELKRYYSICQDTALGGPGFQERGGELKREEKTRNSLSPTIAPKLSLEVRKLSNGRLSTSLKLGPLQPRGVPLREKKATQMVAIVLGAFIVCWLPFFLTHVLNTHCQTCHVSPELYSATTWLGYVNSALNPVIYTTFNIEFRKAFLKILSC

| SMILES | Ki (human D3 receptor) [nM] | D2L/D3L (human D3 receptor) | Differential activity (D2L/D3) compared with control, in words (human D3 receptor) | Ki (human D2L receptor; [1]) [nM] | D3 receptor activity compared with control, in words (human D3 receptor) | Ki (human D3 receptor; read-out: D3 HEK Cells [^3H]spiperone, Ki, cloned human D3 in HEK cells, 0.4 nM [3H]spiperone, 1 h, 30° C., no GTP, mean ± spread (n)) [nM] | Ki (human D2L receptor; read-out: D2L HEK Cells [^3H]spiperone, Ki, […] nM [3H]spiperone, 1 h, 30° C., no GTP, mean ± spread (n)) [nM] | Ki (human D3 receptor; cloned human D3 in HEK cells, 0.4 nM [3H]spiperone, 1 h, 30° C., no GTP, mean ± spread (n)) [nM] |
| --- | --- | --- | --- | --- | --- | --- | --- | --- |
| C#CCN(CCc1ccc(F)cc1)C1CCc2ccc(O)cc2C1 (racemic) [Example 6, (R,S)-trans-7-Hydroxy-2-[N-propynyl-N-ethyl(4′-fluorophenyl)amino]tetralin] | 14.5 ± 4.1 | 111 | about the same as the control | 1610 |  |  |  |  |
| C#CCN(CCc1cccs1)C1CCc2ccc(O)cc2C1 (racemic) [Example 7, (R,S)-trans-7-Hydroxy-2-[N-propynyl-N-ethyl(thienyl)-amino]tetralin] |  | 211 | more than double the activity differential of the control |  | about the same as the control | 8 ± 0.3 | 1700 |  |
| C#CCN(CCCC)C1CCc2ccc(O)cc2C1 (racemic) [Example 4, (R,S)-trans-7-Hydroxy-2-[N-propynyl-N-(butyl-amino]tetralin] | 4.9 ± 1.2 | 108 | slightly greater activity differential | 534 ± 72 | about as active as the (+) isomer |  |  |  |
| C#CCN(CC)C1CCc2ccc(O)cc2C1 (racemic) [Example 5, (R,S)-trans-7-Hydroxy-2-[N-propynyl-N-ethyl-amino]tetralin] | 13.8 ± 2.8 | 108 | as high as the compound of Example 4 | 1490 | high activity, though not as high as the compound of Example 4 or the control |  |  |  |
| C#CCN(CCCC#N)C1CCc2ccc(O)cc2C1 (racemic) [Example 8, (R,S)-trans-7-Hydroxy-2-[N-propynyl-N-(3′-cyano-1′-propyl)amino]tetralin] |  | 353 | more than double the activity differential of the control | 8310 | about the same as the control |  |  | 23.5 ± 4.7 |
